From patent publication US12415803B2, “Fused imidazopyridines as reversible inhibitors of Brutons Tyrosine Kinase (BTK)” (Merck Patent GmbH, priority 2018, dated 2025)

How the values were obtained:
[1] = molecular target: full-length human BTK (Homo sapiens (Human), UniProt Q06187); assay: BTK IC50 Enzyme Assay (microfluidic off-chip mobility shift kinase assay); type: biochemical; details: Btk Enzymatic IC50 Assay, 90 min at 27 C;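 also: Read-out separates phosphorylated peptide product from substrate by their charge-to-mass difference, with IC50 fitted from log inhibitor concentration against percent enzyme activity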
[2] = molecular target: Btk (Homo sapiens (Human), UniProt Q06187); assay: Btk PBMC IC50 Cell Assay (anti-IgM-induced CD69 expression on B cells); type: cell-based; details: anti-IgM-induced CD69 expression on CD19 positive cells in human PBMCs;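 also: freshly isolated human PBMCs, IC50 from concentration-response of the share of CD19+ cells expressing CD69 after anti-IgM BCR stimulation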
Chain of Btk (Q06187 whole entry): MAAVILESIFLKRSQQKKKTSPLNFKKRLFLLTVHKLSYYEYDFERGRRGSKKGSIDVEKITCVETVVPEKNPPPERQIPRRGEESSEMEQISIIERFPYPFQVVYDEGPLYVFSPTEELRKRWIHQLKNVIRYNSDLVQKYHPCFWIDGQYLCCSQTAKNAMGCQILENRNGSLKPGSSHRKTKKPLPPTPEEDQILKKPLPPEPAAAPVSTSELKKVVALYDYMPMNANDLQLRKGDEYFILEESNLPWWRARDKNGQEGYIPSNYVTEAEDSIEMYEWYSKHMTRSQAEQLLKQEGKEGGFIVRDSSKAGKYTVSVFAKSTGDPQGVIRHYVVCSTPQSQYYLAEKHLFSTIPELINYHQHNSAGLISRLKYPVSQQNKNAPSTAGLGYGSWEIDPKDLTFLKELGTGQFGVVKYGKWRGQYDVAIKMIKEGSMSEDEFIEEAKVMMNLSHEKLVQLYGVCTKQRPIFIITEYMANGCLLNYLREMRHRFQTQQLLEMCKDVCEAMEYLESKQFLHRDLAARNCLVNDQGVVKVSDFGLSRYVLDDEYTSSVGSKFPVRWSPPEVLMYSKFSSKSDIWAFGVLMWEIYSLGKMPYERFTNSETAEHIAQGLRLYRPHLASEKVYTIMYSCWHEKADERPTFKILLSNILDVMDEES

Chain of full-length human BTK (Q06187 whole entry): as above

Compound	IC50 [1] [nM]	IC50 [2] [nM]
Cn1cc(-c2nc3c(-c4ccc5c(c4)CCCC[C@H]5NC(=O)c4noc(C5(C)CC5)n4)ccnc3[nH]2)cn1 [Compound 54, 5-(1-Methyl-cyclopropyl)-[1,2,4]oxadiazole-3-carboxylic acid {(R)-2-[2-(1-methyl-1H-pyrazol-4-yl)-3H-imidazo[4,5-b]pyridin-7-yl]-6,7,8,9-tetrahydro-5H-benzocyclohepten-5-yl}-amide]	< 1	1 to 10
Cc1c(-c2nc3c(-c4ccc5c(c4)CCCC[C@H]5NC(=O)c4nc(C5(C)CC5)no4)ccnc3[nH]2)cnn1C(C)C [Compound 27, 3-(1-Methyl-cyclopropyl)-[1,2,4]oxadiazole-5-carboxylic acid {(R)-2-[2-(1-isopropyl-5-methyl-1H-pyrazol-4-yl)-3H-imidazo[4,5-b]pyridin-7-yl]-6,7,8,9-tetrahydro-5H-benzocyclohepten-5-yl}-amide]	< 1	1 to 10
Cc1c(-c2nc3c(-c4ccc5c(c4)CCCC5NC(=O)N4CC(OC(C)(C)C)C4)ccnc3[nH]2)cnn1C1CCOCC1 (centres unmarked) [Compound 147, 3-tert-Butoxy-azetidine-1-carboxylic acid (6-{2-[5-methyl-1-(tetrahydro-pyran-4-yl)-1H-pyrazol-4-yl]-3H-imidazo[4,5-b]pyridin-7-yl}-1,2,3,4-tetrahydro-naphthalen-1-yl)-amide]	< 1	1 to 10
CC(C)n1cc(-c2nc3c(-c4ccc5c(c4)CCCCC5NC(=O)c4nc(C(C)(C)C)no4)ccnc3[nH]2)cn1 (centres unmarked) [Compound 106, 3-tert-Butyl-[1,2,4]oxadiazole-5-carboxylic acid {2-[2-(1-isopropyl-1H-pyrazol-4-yl)-3H-imidazo[4,5-b]pyridin-7-yl]-6,7,8,9-tetrahydro-5H-benzocyclohepten-5-yl}-amide]	< 1	1 to 10
Cc1nn(C(C)C)c(C)c1-c1nc2c(-c3ccc4c(c3)CCCC[C@@H]4NC(=O)c3nnc(C(C)(C)C)o3)ccnc2[nH]1 [Compound 88, 5-tert-butyl-N-[(5S)-2-{2-[3,5-dimethyl-1-(propan-2-yl)-1H-pyrazol-4-yl]-3H-imidazo[4,5-b]pyridin-7-yl}-6,7,8,9-tetrahydro-5H-benzo[7]annulen-5-yl]-1,3,4-oxadiazole-2-carboxamide]	1 to 10	> 100
Cc1nn(C(C)C)c(C)c1-c1nc2c(-c3ccc4c(c3)CCCCC4NC(=O)c3noc(C(C)(C)C)n3)ccnc2[nH]1 (centres unmarked) [Compound 29, 5-tert-Butyl-[1,2,4]oxadiazole-3-carboxylic acid {2-[2-(1-isopropyl-3,5-dimethyl-1H-pyrazol-4-yl)-3H-imidazo[4,5-b]pyridin-7-yl]-6,7,8,9-tetrahydro-5H-benzocyclohepten-5-yl}-amide]	< 1	1 to 10
Cn1cc(-c2nc3c(-c4ccc5c(c4)CCCC[C@@H]5NC(=O)c4nnc(C(C)(C)C)o4)ccnc3[nH]2)cn1 [Compound 49, 5-tert-Butyl-[1,3,4]oxadiazole-2-carboxylic acid {(S)-2-[2-(1-methyl-1H-pyrazol-4-yl)-3H-imidazo[4,5-b]pyridin-7-yl]-6,7,8,9-tetrahydro-5H-benzocyclohepten-5-yl}-amide]	< 1	1 to 10
CCn1ncc(-c2nc3c(-c4ccc5c(c4)CCCCC5NC(=O)c4nc(C(C)(C)C)no4)ccnc3[nH]2)c1C (centres unmarked) [Compound 85, 3-tert-butyl-N-{2-[2-(1-ethyl-5-methyl-1H-pyrazol-4-yl)-3H-imidazo[4,5-b]pyridin-7-yl]-6,7,8,9-tetrahydro-5H-benzo[7]annulen-5-yl}-1,2,4-oxadiazole-5-carboxamide]	< 1	1 to 10
Cc1nn(C)cc1-c1nc2c(-c3ccc4c(c3)CCCC4NC(=O)c3nc(C(C)(C)C)no3)ccnc2[nH]1 (centres unmarked) [Compound 67, 3-tert-Butyl-[1,2,4]oxadiazole-5-carboxylic acid {6-[2-(1,3-dimethyl-1H-pyrazol-4-yl)-3H-imidazo[4,5-b]pyridin-7-yl]-1,2,3,4-tetrahydro-naphthalen-1-yl}-amide]	< 1	10 to 100
Cc1nn(C(C)C)cc1-c1nc2c(-c3ccc4c(c3)CCCC[C@H]4NC(=O)c3nc(C(C)(C)C)no3)ccnc2[nH]1 [Compound 63, 3-tert-Butyl-[1,2,4]oxadiazole-5-carboxylic acid {(R)-2-[2-(1-isopropyl-3-methyl-1H-pyrazol-4-yl)-3H-imidazo[4,5-b]pyridin-7-yl]-6,7,8,9-tetrahydro-5H-benzocyclohepten-5-yl}-amide]	< 1	1 to 10
Cn1cc(-c2nc3c(-c4ccc5c(c4)CCCCC5NC(=O)N4CC(OC(C)(C)C)C4)ccnc3[nH]2)cn1 (centres unmarked) [Compound 43, 3-tert-Butoxy-azetidine-1-carboxylic acid {2-[2-(1-methyl-1H-pyrazol-4-yl)-3H-imidazo[4,5-b]pyridin-7-yl]-6,7,8,9-tetrahydro-5H-benzocyclohepten-5-yl}-amide]	< 1	1 to 10
Cn1cc(-c2nc3nccc(-c4ccc5c(c4)CCCC[C@H]5NC(=O)N4CC(OC(C)(C)C)C4)c3[nH]2)cn1 [Compound 50, 3-tert-Butoxy-azetidine-1-carboxylic acid {(R)-2-[2-(1-methyl-1H-pyrazol-4-yl)-3H-imidazo[4,5-b]pyridin-7-yl]-6,7,8,9-tetrahydro-5H-benzocyclohepten-5-yl}-amide]	1 to 10	> 100
Cc1nn(C)c(C)c1-c1nc2c(-c3ccc4c(c3)CCCC4NC(=O)c3nc(C(C)(C)C)no3)ccnc2[nH]1 (centres unmarked) [Compound 68, 3-tert-Butyl-[1,2,4]oxadiazole-5-carboxylic acid {6-[2-(1,3,5-trimethyl-1H-pyrazol-4-yl)-3H-imidazo[4,5-b]pyridin-7-yl]-1,2,3,4-tetrahydro-naphthalen-1-yl}-amide]	1 to 10	10 to 100

Other lines, results leading:

IC50 [1] [nM]	IC50 [2] [nM]	Compound
< 1	1 to 10	Cc1nn(C(C)C)c(C)c1-c1nc2c(-c3ccc4c(c3)CCCC[C@H]4NC(=O)c3nnc(C(C)(C)C)o3)ccnc2[nH]1 [Compound 87, 5-tert-butyl-N-[(5R)-2-{2-[3,5-dimethyl-1-(propan-2-yl)-1H-pyrazol-4-yl]-3H-imidazo[4,5-b]pyridin-7-yl}-6,7,8,9-tetrahydro-5H-benzo[7]annulen-5-yl]-1,3,4-oxadiazole-2-carboxamide]
1 to 10	10 to 100	Cc1nn(C)c(C)c1-c1nc2nccc(-c3ccc4c(c3)CCCC[C@@H]4NC(=O)c3cc(C(C)(C)C)on3)c2[nH]1 [Compound 71, 5-tert-butyl-N-[(5S)-2-[2-(1,3,5-trimethyl-1H-pyrazol-4-yl)-1H-imidazo[4,5-b]pyridin-7-yl]-6,7,8,9-tetrahydro-5H-benzo[7]annulen-5-yl]-1,2-oxazole-3-carboxamide]
< 1	1 to 10	Cc1c(-c2nc3c(-c4ccc5c(c4)CCCCC5NC(=O)c4noc(C(C)(C)C)n4)ccnc3[nH]2)cnn1C(C)C (centres unmarked) [Compound 20, 5-tert-Butyl-[1,2,4]oxadiazole-3-carboxylic acid {2-[2-(1-isopropyl-5-methyl-1H-pyrazol-4-yl)-3H-imidazo[4,5-b]pyridin-7-yl]-6,7,8,9-tetrahydro-5H-benzocyclohepten-5-yl}-amide]
< 1	1 to 10	Cc1c(-c2nc3c(-c4ccc5c(c4)CCCCC5NC(=O)c4nnc(C(C)(C)C)o4)ccnc3[nH]2)cnn1C(C)C (centres unmarked) [Compound 84, 5-tert-butyl-N-(2-{2-[5-methyl-1-(propan-2-yl)-1H-pyrazol-4-yl]-3H-imidazo[4,5-b]pyridin-7-yl}-6,7,8,9-tetrahydro-5H-benzo[7]annulen-5-yl)-1,3,4-oxadiazole-2-carboxamide]
1 to 10	10 to 100	Cn1cc(-c2nc3c(-c4ccc5c(c4)CCCC[C@@H]5NC(=O)c4noc(C5(C)CC5)n4)ccnc3[nH]2)cn1 [Compound 55, 5-(1-Methyl-cyclopropyl)-[1,2,4]oxadiazole-3-carboxylic acid {(S)-2-[2-(1-methyl-1H-pyrazol-4-yl)-3H-imidazo[4,5-b]pyridin-7-yl]-6,7,8,9-tetrahydro-5H-benzocyclohepten-5-yl}-amide]
< 1	10 to 100	Cc1nn(C)c(C)c1-c1nc2c(-c3ccc4c(c3)OCCCC4NC(=O)c3noc(C(C)(C)C)n3)ccnc2[nH]1 (centres unmarked) [Compound 14, 5-tert-Butyl-[1,2,4]oxadiazole-3-carboxylic acid {8-[2-(1,3,5-trimethyl-1H-pyrazol-4-yl)-3H-imidazo[4,5-b]pyridin-7-yl]-2,3,4,5-tetrahydro-benzo[b]oxepin-5-yl}-amide]
< 1	1 to 10	Cn1cc(-c2nc3c(-c4ccc5c(c4)CCCCC5NC(=O)c4noc(C5(C)CC5)n4)ccnc3[nH]2)cn1 (centres unmarked) [Compound 40, 5-(1-Methyl-cyclopropyl)-[1,2,4]oxadiazole-3-carboxylic acid {2-[2-(1-methyl-1H-pyrazol-4-yl)-3H-imidazo[4,5-b]pyridin-7-yl]-6,7,8,9-tetrahydro-5H-benzocyclohepten-5-yl}-amide]
< 1	1 to 10	Cc1c(-c2nc3c(-c4ccc5c(c4)CCC[C@H]5NC(=O)c4noc(C(C)(C)C)n4)ccnc3[nH]2)cnn1C1CCOCC1 [Compound 156, 5-tert-Butyl-[1,2,4]oxadiazole-3-carboxylic acid ((R)-6-{2-[5-methyl-1-(tetrahydro-pyran-4-yl)-1H-pyrazol-4-yl]-3H-imidazo[4,5-b]pyridin-7-yl}-1,2,3,4-tetrahydro-naphthalen-1-yl)-amide]
< 1	1 to 10	Cc1nn(C)c(C)c1-c1nc2c(-c3ccc4c(c3)OCCC[C@@H]4NC(=O)c3nnc(C(C)(C)C)o3)ccnc2[nH]1 [Compound 19, 5-tert-Butyl-[1,3,4]oxadiazole-2-carboxylic acid {(S)-8-[2-(1,3,5-trimethyl-1H-pyrazol-4-yl)-3H-imidazo[4,5-b]pyridin-7-yl]-2,3,4,5-tetrahydro-benzo[b]oxepin-5-yl}-amide]
